# In US6476060B2, “4,5-dihydro-1H-pyrazole derivatives having CB1-antagonistic activity” (Solvay Pharmaceuticals, B.V., priority 2000, dated 2002):
row,Compound,melting point
1,"O=S(=O)(NCCN1CC(c2ccccc2)C(c2ccc(Cl)cc2)=N1)c1cccc(C(F)(F)F)c1 (stereo not drawn) [IX, N-[2-(3-(4-Chlorophenyl)-4,5-dihydro-4-phenyl-1H-pyrazol-1-yl)ethyl]-3-(trifluoromethyl)benzenesulfonamide]",94 to 96 °C
2,"CNC(=NC(=O)c1cccc(C(F)(F)F)c1)N1CC(c2ccccc2)C(c2ccc(Cl)cc2)=N1 (stereo not drawn) [V, N-Methyl-N′-(3-(trifluoromethyl)benzoyl)-3-(4-chlorophenyl)-4,5-dihydro-4-phenyl-1H-pyrazole-1-carboxamidine]",180 to 182 °C
3,"O=S(=O)(CCN1CC(c2ccccc2)C(c2ccc(Cl)cc2)=N1)c1cccc(C(F)(F)F)c1 (stereo not drawn) [VIII, 3-(4-Chlorophenyl)-4,5-dihydro-4-phenyl-1-[2-((3-(trifluoromethyl)phenyl)-sulfonyl)ethyl]-1H-pyrazole]",118 to 119 °C
